What was measured:
Assay type in all cases: cell-based, human
cleaved caspase-3 = test: Western blotting for apoptosis, cell lines
Procedure: (§1) Following drug treatment, cell lysates were harvested using Cytobuster Protein Extraction Reagent (71009, EMD Millipore, Darmstadt, Germany) with protease inhibitors (cOmplete, EDTA-free Protease Inhibitor Cocktail Tablets, Roche Applied Science, UK). 20 µg of protein extract were loaded on 12% SDS-PAGE gels and wet-transferred to a PVDF membrane. Antibodies used include: monoclonal anti-β-actin 1∶5000 (A5316, Sigma-Aldrich), anti-LC3B 1∶3000 (Ab51520, abcam), cleaved caspase-3 (Asp175) 1∶1000 (9661S, Cell Signaling Technology) and secondary antibodies were Rabbit anti-mouse-HRP 1∶10000 (P0260, Dako) and anti-rabbit IgG HRP-linked 1∶5000 (Cell Signaling Technology Inc. 7074S). Kaleidoscope protein marker was run on each gel (161-0324, Bio-Rad).

LC3-II = test: Western blotting for autophagy, cell lines
Procedure: as §1

[1] = system: primary prostate epithelial cells; test: Flow cytometry cell cycle analysis, primary cells; details: primary cells
Procedure: Following drug treatment, floating cells in the media were pooled with adherent cells, which were collected by trypsinisation. Following centrifugation cells were resuspended in 0.5 ml PBS. Cells were fixed in 2 ml ice cold 70% ethanol, which was added in a dropwise fashion while vortexing. Cells were incubated on ice for 30 min then washed in 5 ml PBS and resuspended in 0.4 ml PBS. Following storage at 4°C overnight, 50 µl of RNAse (1 mg/ml) and 50 µl of propidium iodide (1 mg/ml) were added to the cells. Following incubation at 37°C for 30 min the cells were analysed for 2N and 4N DNA content on a flow cytometer (Cyan ADP Analyser, Beckman Coulter).

PNT2-C2 = test: MTS assay, anti-growth effect on cell line
Procedure: (§2) In this study, six different prostate cell lines (PNT1A, PNT2-C2, BPH-1, PC-3, LNCaP, P4E6) were used (Table 1). These cell lines encompass the spectrum of cellular differentiation status (basal, intermediate and luminal phenotypes), as well as the spectrum of normal, early cancer and late cancer. BPH-1 is derived from benign prostate hyperplasia (BPH), while PNT2-C2 and PNT1A are derived from normal prostate. PC-3, LNCaP and P4E6 are cancer cell lines. LNCaP, PNT2-C2, PNT1A were grown in RPMI medium with 10% FCS (foetal calf serum); PC-3 was grown in Ham’s F-12 medium with 7% FCS; BPH-1 was grown in RPMI medium with 5% FCS; P4E6 was grown in KSFM (Keratinocyte serum free medium) with 2% FCS. No antibiotics were used in any media. The cells were incubated at 37°C in a humidified atmosphere containing 5% CO2.
(§3) This assay was performed for the initial screening of the effect of the Pd complex on the cell lines and the whole cell population of primary cultures. The CellTiter 96® Aqueous One Solution Cell Proliferation Assay kit (G3580, Promega, Madison, WI, USA) was used and the manufacturer’s instructions were followed. Briefly, after treating cells that were seeded at a density of 5,000 cells per well in a 96-well plate in triplicate for a desired period (24 h, 48 h, 72 h), 20 µL of reagent was added to each well. Following 2.5 h incubation at 37°C, the absorbance was read at 485 nm using a plate reader (PolarStar Optima, BMG Labtech, UK). Percent viability was calculated using the formula (% Viability = [(Sample Absorbance/Control Absorbance)]×100.
(§4) MTS and ATP assays were performed in triplicate and data presented as the mean +/− standard deviation. IC50 values (Table 3 and Table 4) were calculated from graphs of transformed data following application of the nonlinear regression (curve fit) that represents the log(inhibitor) ‘v’ normalized response (GraphPad Prism software) (Supplementary Figures S1 and S2). For significance calculations, the Wilcoxon rank sum test was used (Sigmaplot). Flow cytometry analysis was carried out in triplicate and results are presented as an average with error bars indicating the standard error.

PNT1A = test: MTS assay, anti-growth effect on cell line
Procedure: as §2, §3, §4

P4E6 = test: MTS assay, anti-growth effect on cell line
Procedure: as §2, §3, §4

LNCaP = test: MTS assay, anti-growth effect on cell line
Procedure: as §2, §3, §4

PC-3 = test: MTS assay, anti-growth effect on cell line
Procedure: as §2, §3, §4

BPH-1 = test: MTS assay, anti-growth effect on cell line
Procedure: as §2, §3, §4

γH2AX nuclear foci = test: γH2AX immunofluorescence, DNA damage in primary cultures; details: 48 h
Procedure: γH2AX staining: Cells were seeded onto 8-well collagen I-coated chamber slides. […] After blocking of non-specific binding with 2% BSA in PBS with 1% goat serum for 1 hour at RT, primary antibody (anti-phospho-histone H2A.X (Ser139), clone JBW301, Millipore, Cat no. 05–636) at 1∶1000 dilution was added in 3% BSA in PBS at 4°C overnight followed by three washes in 0.5% BSA in PBS with 0.175% Tween 20. Following incubation with secondary antibody (Goat anti-mouse Alexa Fluor 568, Invitrogen, Cat no. A-11004) at 1∶1000 dilution for 45 min in 3% BSA in PBS and three more washes in the same washing buffer, the slides were mounted using Vectashield with DAPI (Vector Laboratories, Cat no. H-1200). LC3-B staining: Cells were treated as above then fixed with 4% paraformaldehyde, followed by an incubation in 0.3% Triton X-100. After blocking with 10% normal goat serum, cells were incubated in anti-LC3B 1∶200 (Ab51520, abcam) diluted in 0.1% Triton X-100 in PBS. […]
Since the mechanism of action of the Pd complex has not been fully characterized, the DNA-damaging effect was assessed. […] Nuclei with evidence of γH2AX nuclear foci, indicative of DNA damage, were counted on 10 randomly chosen fields at the highest (63x) magnification and the mean number of positively-stained nuclei was calculated. At least 100 cells per well were counted.

[PdCl(terpy)](sac)⋅2 H2O [Pd complex]
cleaved caspase-3 (apoptosis) (cleaved caspase-3; BPH-1, PNT2-C2 and P4E6 cells): clear induction of cleaved caspase-3 | cleaved caspase-3 (apoptosis) (cleaved caspase-3; LNCaP cells): only observed after treatment with 25 µM Pd complex | cleaved caspase-3 (apoptosis) (cleaved caspase-3; PC3 cells): no evidence of cleaved caspase-3 | LC3-II expression (autophagy) (LC3-II; BPH-1, PNT2-C2 and P4E6 cells): clear increase in the expression of LC3-II | levels of LC3-I and LC3-II (LC3-II; LNCaP and PC3 cells, any treatment): did not change dramatically or in a dose-dependent fashion | cells with more than 4N DNA content [1]: increase in cells with more than 4N DNA content | sub-G1 content [1]: clear dose response showing increase in sub-G1 content | IC50 (PNT2-C2; PNT2-C2, 24 h): 1730 nM | IC50 (PNT2-C2; PNT2-C2, 48 h): 17200 nM | IC50 (PNT2-C2; PNT2-C2, 72 h): 903 nM | IC50 (PNT1A; 24 h): 28000 nM | IC50 (PNT1A; 48 h): 1260 nM | IC50 (PNT1A; 72 h): 106 nM | IC50 (P4E6; P4E6, 24 h): 21.8 µM | IC50 (P4E6; P4E6, 48 h): 9.66 µM | IC50 (P4E6; P4E6, 72 h): 4.37 µM | IC50 (LNCaP; 24 h): 106 µM | IC50 (LNCaP; 48 h): 11.9 µM | IC50 (LNCaP; 72 h): 3.43 µM | IC50 (PC-3; PC-3, 24 h): 98.9 µM | IC50 (PC-3; PC-3, 48 h): 49.1 µM | IC50 (PC-3; PC-3, 72 h): 26.8 µM | IC50 (BPH-1; BPH-1, 24 h): 17600 nM | IC50 (BPH-1; BPH-1, 48 h): 1880 nM | IC50 (BPH-1; BPH-1, 72 h): 140 nM | level of DNA damage (γH2AX nuclear foci) (γH2AX nuclear foci; 3.12 µM): did not induce a significant level of DNA damage | level of DNA damage (γH2AX nuclear foci) (γH2AX nuclear foci; etoposide and Pd complex at the same dose, primary cultures from prostate carcinoma): same level of DNA damage
